Assay results published in patent US4108973A, “Immunoassay for catecholamines” (Hoffmann-La Roche Inc., priority 1976, dated 1978).

The molecules below were run against Ab-7^123 dl-Met complex (epinephrine type catecholamine antibody) (assay: Antibody specificity: 50% inhibition of antibody-labelled dl-metanephrine complex (competitive binding radioimmunoassay)). Settings: amount for 50% inhibition; incubation volume 0.5 or 1.0 ml.
Design: species or system rabbit
Protocol: The specificity of an epinephrine type catecholamine antibody suitable for use in the practice of the present method is set forth below in Table 1:
For immunization of rabbits, 10 mg. of each of the products of Example 8 or Example 9 was dissolved in 1 ml. of phosphate buffered saline and emulsified with 1 ml. of complete Freund's adjuvant. The second inoculation was given three weeks later and consisted of 1.5 mg. immunogen in 1 ml. PBS emulsified with 1 ml. of complete Freund's adjuvant. The third injection, five weeks after the first, employed the same concentration of antigen but was in incomplete Freund's adjuvant. Immunizations were by the subcutaneous route.
A competitive binding radioimmunoassay procedure is used similar to that described in U.S. Pat. No. 3,704,282. An incubation volume of either 0.5 or 1.0 ml. is used and antibody-label complex is separated from free label by precipitation with saturated

| Structure (SMILES) | 50 % INHIBITION OF Ab-7^123 dl-Met OMPLEX [ng] |
| --- | --- |
| CNCC(O)c1ccc(O)c(OC)c1 (racemic) [dl-Metanephrine] | 0.050 |
| CNCC(O)c1ccc(O)cc1 (racemic) [dl-Synephrine] | 0.100 |
| CNC[C@H](O)c1ccc(O)c(O)c1 [1-Epinephrine] | 0.250 |
| NC[C@H](O)c1ccc(O)c(O)c1 [1-Norepinephrine] | > 500 |
| CNC[C@H](O)c1cccc(O)c1 [1-Phenylephrine] | 0.060 |
| CC(N)Cc1ccccc1 (stereo not shown) [Amphetamine] | > 500 |
| N[C@@H](Cc1ccc(O)c(O)c1)C(=O)O [DOPA] | > 500 |
| NCCc1ccc(O)c(O)c1 [Dopamine] | > 500 |
| CNC(C)C(O)c1ccccc1 (stereo not shown) [Ephedrine] | > 500 |
| CNCCc1ccc(O)c(O)c1 [Epinine] | 0.350 |
| CC(C)NCC(O)c1ccc(O)c(O)c1 (stereo not shown) [Isoproterenol] | > 500 |
| CNC(C)Cc1ccccc1 (stereo not shown) [Methamphetamine] | > 500 |
| NCCc1c[nH]c2ccc(O)cc12 [Sezotosin] | > 500 |
